Data from patent publication US12187653B2, “Surface retarder formulation and method for replicating an acid etch or sand blast aspect on cementitious material” (GCP Applied Technologies Inc., priority 2018, dated 2025).

Key:
[1] = Etch quality of in-form surface retarder on cast concrete after pressure washing; conditions: for surface etch: Example 6, procedure of Example 2
Procedure: Each was used to make an in-form surface retarder by combining the materials shown below, in the order listed, in a Silverson-high shear rotor-stator mixer at 5000 rpm, and mixing for 10 minutes after the final addition.
The exemplary in-form surface retarder was roller applied in rectangles on a wood form at a rate of 400 ft^2/gallon and allowed to dry for 2 hours at 72° F.
The concrete was poured into the wood form which has the surface retarder paint applied. The concrete was allowed to dry and cure without covering for 22 hours at a temperature of 90° F.
After 22 hours of curing, the concrete was removed from the wood mold and sprayed with high pressure water from a 1900 psi pressure washer to remove the in-form surface retarder and retarded cement paste. Washing continued until water was running clear and no further cement paste is removed (this process removes whatever cement paste that has not hardened to the surface of the concrete due to the retarding effects of the acids tested).

[2] = Cement binding: percent of species absorbed to cement, by ion chromatography; conditions: for % binding to cement: Example 6, procedure of Example 1B; for % adsorbed: 1% acid in 2% KOH solution, 30 g solution on 3 g cement, 10 min
Procedure: Each acid was dissolved at 1% by weight in a 2% by weight KOH solution. Thirty grams of solution was exposed to 3 g of Type I/II cement in a tube, and mixed on a tube rotator for 10 min @ 30 rpm. The resulting slurry was centrifuged for 1 min at 4000 rpm to separate the cement and adsorbed compounds from the soluble species. The soluble portion was filtered with a 0.2 micron syringe filter and then analyzed by ion chromatography using an ICS-2100 RFIC by Dionex with single point calibration with a standard at 100 ppm. Samples and standards were prepared in 50 mM KOH solution. Samples' dilutions were adjusted to be within calibration range. Data analysis run through peak area integration.
The cement binding is expressed as a percent of the species present that absorbed to the cement.

[3] = Solubility of acids in water, saturated solution measured by Total Organic Carbon; conditions: in 100 mL water, 25° C., stirred 14 hours, TOC
Procedure: The mixture was allowed to settle and the saturated aqueous solution of acid was decanted. Concentration was measured by Total Organic Carbon using a TOC-L CSH/CSN by Shimadzu. A calibration curve is generate based off a four point calibration of 0 ppm, 25 ppm, 50 ppm, and 100 ppm carbon. Samples are then diluted to a predetermined dilution factor. 20 mL of the diluted samples are acidified to a pH of ^˜2-3 with hydrochloric acid. Samples are run based off the calibration curve performing two 50 uL injections each to determine the total organic carbon of the sample.

[4] = Table 5: resin in the given solvent
Procedure: The solubility of resin in various organic solvents was evaluated by observation. A small amount of resin (0.2 g) was placed in a vial with 3 mL of the solvent. Observations were made immediately, after two hours and thirty minutes, and after 15 hours.

[5] = Example 2: retarder with 8 g acid, 400 ft^2/gallon on wood form, concrete cured 22 hours at 90° F., compared to FIG. 1
[6] = Example 3, same procedure as Example 2, tartaric acid forms compared

Row | % adsorbed [2] [%] | Compound | Etch depth [1, 5] | also measured
1 | – | O=C(O)CN(CCN(CC(=O)O)CC(=O)O)CC(=O)O [Ethylenediamine-tetraacetic] | – | surface etch [1]: very light to none; % binding to cement [2]: 36%
2 | 6.3 | O=C(O)CC(=O)O [Malonic Acid] | too deep, coarse aggregates visible | –
3 | 0 | C/C(=C\C(=O)O)C(=O)O [Mesaconic Acid] | Very light to none | –
4 | – | OB(O)O [Boric Acid by ICP, Boric Acid] | – | % binding to cement [2]: 100%
5 | 1.9 | C/C(=C/C(=O)O)C(=O)O [Citraconic Acid] | Lighter than optimum, not even | –
6 | 1.1 | O=C(O)CCCCC(=O)O [Adipic Acid] | Lighter than optimum, not even | –
7 | 94.8 | O=C(O)C(=O)O [Oxalic Acid] | just right, light etch showing sand textures | –
8 | 6.4 | O=C(O)CCC(=O)O [Succinic Acid] | Lighter than optimum, not even | –
9 | – | O=C[C@H](O)[C@@H](O)[C@H](O)[C@H](O)CO [D-(+)-Glucose] | – | % binding to cement [2]: 100%
10 | – | NCCCCCCCCCCCC(=O)O [12-Aminododecanoic Acid] | – | surface etch [1]: very light to none; % binding to cement [2]: 90%
11 | 0 | O=C(O)c1ccccc1C(=O)O [Phthalic Acid] | Very light to none | –
12 | – | O=C(O)/C=C(\CC(=O)O)C(=O)O [trans-Aconitic Acid] | – | % binding to cement [2]: 5%
13 | – | CCCCOC(C)=O [Butyl Acetate] | – | Resin solubility [4]: Dissolved
14 | – | Xylene | – | Resin solubility [4]: Dissolved

Row | Compound | % adsorbed [2] [%] | Etch depth [1, 5] | also measured
15 | O=C(O)CCCC(=O)O [Glutaric Acid] | 0 | just right, light etch showing sand textures | Solubility [3]: 36 g/100 g
16 | O=C(O)C(O)C(O)C(=O)O (racemic) [DL-Tartaric Acid] | 31.6 | just right, light etch showing sand textures | Etch depth [1, 6]: just right, light etch showing sand textures
17 | CC(C(=O)O)C(=O)O [Methymalonic Acid, Methylmalonic acid] | 7.0 | Very light to none | Solubility [3]: 5 g/100 g
18 | O=C(O)C(O)C(O)C(=O)O (centres unmarked) [D Tartaric Acid] | 29.1 | too deep, coarse aggregates visible | Etch depth [1, 6]: too deep, coarse aggregates visible
19 | O=C(O)C(O)C(O)C(=O)O (centres unmarked) [L Tartaric Acid] | 21.5 | too deep, coarse aggregates visible | Etch depth [1, 6]: too deep, coarse aggregates visible
